Values of other authors as cited in patent US9580717B2, “Heterologous hosts” (priority 2009, dated 2017).

Experiments:
[1] = system: malignant mammalian cells
P388 leukaemia cells = conditions: mouse, in vivo

Row | SMILES | cytopathic activity against malignant mammalian cells [1] | cytotoxicity to tumour cell lines (tumour cell lines) | lifespan of mice inoculated with P388 leukaemia cells (P388 leukaemia cells)
1 | C[C@H]1CCC(C2=C(CC(=O)NCC(=O)c3csc(C(=O)C(=O)c4csc(CNC(=O)CC5=C(C6=N[C@@H](C)CC6)C(=O)NC56CC6)n4)n3)C3(CC3)NC2=O)=N1 [Colibactin] | cytopathic activity | – | –
2 | CCCCCCC/C=C/C=C/C(=O)N[C@H](C(=O)N[C@H]1C[C@@H](O)CCNC(=O)/C=C/[C@H](C)NC1=O)[C@@H](C)O [Glidobactin A] | – | cytotoxic to tumour cell lines | can prolong the lifespan
